How the values were obtained:
Format in all cases: functional
WiDr = experiment: Growth inhibition of human WiDr after 48 hrs
HeLa = experiment: Growth inhibition of human HeLa after 48 hrs
SW1573 = experiment: Growth inhibition of human SW1573 after 48 hrs; conditions: SW1573, 48 h
HBL-100 = experiment: Growth inhibition of human HBL100 after 48 hrs; conditions: HBL-100, 48 h

Structure (SMILES) | GI50 (WiDr) [µM] | GI50 (HeLa) [µM] | GI50 (SW1573) [µM] | GI50 (HBL-100) [nM]
CCCCC[C@@H](C#CC(=O)OC)O/C=C/C(=O)OC | 24 | 2.9 | 8.4 | 2300
CCCCC[C@H](C#CC(=O)OC)O/C=C/C(=O)OC | 26 | 2.6 | 5.5 | 3300
CCCCCC(C#CC(=O)OC)O/C=C/C(=O)OC (racemic) | 13 | 17 | 1.3 | 2700
CCCCC(C#CC(=O)OC)O/C=C/C(=O)OC (racemic) | 3.6 | 3.4 | 0.42 | 470

Source: ChEMBL document CHEMBL2424647, “Molecular docking studies of the interaction between propargylic enol ethers and human DNA topoisomerase IIα” (2013)
